In ChEMBL document CHEMBL5608196, “1,3,5-Triazine as a promising scaffold in the development of therapeutic agents against breast cancer” (Eur J Med Chem, 2024):
Values belong to the compound of their own block, whether it stands above or below them.

Columns and labels:
[1] = test system: MCF7; experiment: Anti-proliferative activity against human MCF7 cells incubated for 72 hrs by MTT assay; assay type: functional, cell-based; details: MCF7, 72 h
[2] = test system: MCF7; experiment: Cytotoxicity against human MCF7 cells
[3] = molecular target: Serine/threonine-protein kinase mTOR (Homo sapiens, UniProt P42345); experiment: Inhibition of mTOR (unknown origin)
[4] = test system: MCF7; experiment: Anti-cancer activity against human MCF7 cells; assay type: functional, cell-based
[5] = molecular target: T1, Epidermal growth factor receptor (Homo sapiens, UniProt P00533); experiment: Inhibition of EGFR (unknown origin) by ELISA
[6] = test system: MCF7; experiment: Inhibition of cell viability in human MCF7 cells incubated for 48 hrs by MTT assay; assay type: functional, cell-based; details: MCF7, 48 h
[7] = test system: MDA-MB-231; experiment: Inhibition of cell proliferation of human MDA-MB-231 cells incubated for 24 hrs by MTT assay; assay type: functional, cell-based; details: MDA-MB-231, 24 h
[8] = test system: MCF7; experiment: Inhibition of cell proliferation of human MCF7 cells incubated for 24 hrs by MTT assay; assay type: functional, cell-based; details: MCF7, 24 h
[9] = test system: MCF7; experiment: Antitumor activity against human MCF7 cells by MTT assay
[10] = test system: MCF7; experiment: Anticancer activity against human MCF7 cells; assay type: functional, cell-based
[11] = molecular target: Carbonic anhydrase 9 (Homo sapiens, UniProt Q16790); experiment: Inhibition of human CA-IX
[12] = test system: MDA-MB-231; experiment: Cytotoxicity against human MDA-MB-231 cells incubated for 72 hrs by MTT assay; assay type: functional, cell-based; details: MDA-MB-231, 72 h
[13] = test system: MCF7; experiment: Anticancer activity against human MCF7 cells incubated for 48 hrs by MTT assay; details: MCF7, 48 h
[14] = molecular target: T1, Epidermal growth factor receptor; experiment: Inhibition of EGFR (unknown origin)
[15] = test system: MCF7; experiment: Anticancer activity against human MCF7 cells incubated for 24 to 72 hrs by MTT assay; assay type: functional, cell-based
[16] = molecular target: T1, Epidermal growth factor receptor; experiment: Inhibition of EGFR (unknown origin) using Poly (Glu, Tyr) as substrate at 10 uM incubated for 40 mins in presence of ATP by Kinase-Glo Plus luminescence kinase assay relative to control
[17] = test system: MDA-MB-468; experiment: Anticancer activity against human MDA-MB-468 cells assessed as cell growth inhibition under hypoxia incubated for 48 hrs by SRB assay relative to control; assay type: functional
[18] = test system: MDA-MB-468; experiment: Anticancer activity against human MDA-MB-468 cells assessed as cell growth inhibition incubated for 48 hrs by SRB assay; assay type: functional, cell-based; details: MDA-MB-468, 48 h
[19] = test system: MCF7; experiment: Cytotoxicity against human MCF7 cells assessed as cell growth inhibition incubated for 72 hrs by MTT assay; assay type: functional, cell-based; details: MCF7, 72 h
[20] = test system: MCF7; experiment: Anti-proliferative activity against human MCF7 cells by MTT assay; assay type: functional, cell-based
[21] = test system: MDA-MB-231; experiment: Inhibition of cell survival in human MDA-MB-231 cells incubated for 72 hrs by MTT assay; assay type: functional, cell-based; details: MDA-MB-231, 72 h
[22] = test system: MDA-MB-231; experiment: Antiproliferative activity against human MDA-MB-231 cells; assay type: functional, cell-based
[23] = molecular target: T2, Phosphatidylinositol 4,5-bisphosphate 3-kinase catalytic subunit alpha isoform (Homo sapiens, UniProt P42336); experiment: Inhibition of PI3K-alpha (unknown origin) at 100 uM relative to control
[24] = Inhibition of PI3K (unknown origin); parameters: species or system Homo sapiens
[25] = test system: MDA-MB-468; experiment: Anticancer activity against human MDA-MB-468 cells assessed as cell growth inhibition under normoxia at 10 uM incubated for 48 hrs by SRB assay relative to control; assay type: functional; details: read-out: GI
[26] = molecular target: T2, Phosphatidylinositol 4,5-bisphosphate 3-kinase catalytic subunit alpha isoform; experiment: Inhibition of PI3K-alpha (unknown origin)
[27] = test system: MCF7; experiment: Anticancer activity against human MCF7 cells incubated for 24 hrs by MTT assay; assay type: functional, cell-based; details: MCF7, 24 h

T1 sequence (P00533 whole entry): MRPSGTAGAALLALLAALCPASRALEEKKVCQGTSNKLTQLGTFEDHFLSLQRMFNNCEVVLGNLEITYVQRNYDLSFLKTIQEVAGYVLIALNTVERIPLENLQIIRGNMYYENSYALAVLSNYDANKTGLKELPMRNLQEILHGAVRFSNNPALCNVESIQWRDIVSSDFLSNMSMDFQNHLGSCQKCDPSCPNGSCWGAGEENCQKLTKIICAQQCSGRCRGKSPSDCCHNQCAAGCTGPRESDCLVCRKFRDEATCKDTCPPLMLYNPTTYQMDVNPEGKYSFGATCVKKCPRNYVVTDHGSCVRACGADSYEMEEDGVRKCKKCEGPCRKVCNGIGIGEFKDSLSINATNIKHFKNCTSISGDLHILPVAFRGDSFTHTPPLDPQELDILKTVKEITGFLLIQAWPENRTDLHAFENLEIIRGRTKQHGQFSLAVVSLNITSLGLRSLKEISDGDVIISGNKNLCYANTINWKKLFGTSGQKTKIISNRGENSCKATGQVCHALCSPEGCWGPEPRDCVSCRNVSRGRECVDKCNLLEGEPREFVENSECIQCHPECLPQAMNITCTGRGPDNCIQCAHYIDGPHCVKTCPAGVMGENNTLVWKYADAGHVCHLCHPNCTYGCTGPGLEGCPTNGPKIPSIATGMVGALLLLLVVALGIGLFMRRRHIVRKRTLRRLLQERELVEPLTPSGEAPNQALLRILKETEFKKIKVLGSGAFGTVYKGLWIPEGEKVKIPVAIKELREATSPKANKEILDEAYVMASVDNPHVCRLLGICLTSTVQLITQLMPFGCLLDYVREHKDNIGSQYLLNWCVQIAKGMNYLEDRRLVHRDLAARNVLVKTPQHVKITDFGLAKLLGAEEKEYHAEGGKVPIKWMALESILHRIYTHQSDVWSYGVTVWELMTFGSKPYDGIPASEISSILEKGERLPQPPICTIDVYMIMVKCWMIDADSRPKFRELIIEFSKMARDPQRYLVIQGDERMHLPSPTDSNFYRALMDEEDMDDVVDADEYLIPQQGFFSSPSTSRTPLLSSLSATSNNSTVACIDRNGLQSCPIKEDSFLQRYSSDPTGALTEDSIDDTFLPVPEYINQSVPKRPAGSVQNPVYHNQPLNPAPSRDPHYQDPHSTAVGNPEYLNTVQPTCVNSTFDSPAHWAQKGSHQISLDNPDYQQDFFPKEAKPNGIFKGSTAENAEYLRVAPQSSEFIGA
T2 sequence (P42336 whole entry, canonical isoform): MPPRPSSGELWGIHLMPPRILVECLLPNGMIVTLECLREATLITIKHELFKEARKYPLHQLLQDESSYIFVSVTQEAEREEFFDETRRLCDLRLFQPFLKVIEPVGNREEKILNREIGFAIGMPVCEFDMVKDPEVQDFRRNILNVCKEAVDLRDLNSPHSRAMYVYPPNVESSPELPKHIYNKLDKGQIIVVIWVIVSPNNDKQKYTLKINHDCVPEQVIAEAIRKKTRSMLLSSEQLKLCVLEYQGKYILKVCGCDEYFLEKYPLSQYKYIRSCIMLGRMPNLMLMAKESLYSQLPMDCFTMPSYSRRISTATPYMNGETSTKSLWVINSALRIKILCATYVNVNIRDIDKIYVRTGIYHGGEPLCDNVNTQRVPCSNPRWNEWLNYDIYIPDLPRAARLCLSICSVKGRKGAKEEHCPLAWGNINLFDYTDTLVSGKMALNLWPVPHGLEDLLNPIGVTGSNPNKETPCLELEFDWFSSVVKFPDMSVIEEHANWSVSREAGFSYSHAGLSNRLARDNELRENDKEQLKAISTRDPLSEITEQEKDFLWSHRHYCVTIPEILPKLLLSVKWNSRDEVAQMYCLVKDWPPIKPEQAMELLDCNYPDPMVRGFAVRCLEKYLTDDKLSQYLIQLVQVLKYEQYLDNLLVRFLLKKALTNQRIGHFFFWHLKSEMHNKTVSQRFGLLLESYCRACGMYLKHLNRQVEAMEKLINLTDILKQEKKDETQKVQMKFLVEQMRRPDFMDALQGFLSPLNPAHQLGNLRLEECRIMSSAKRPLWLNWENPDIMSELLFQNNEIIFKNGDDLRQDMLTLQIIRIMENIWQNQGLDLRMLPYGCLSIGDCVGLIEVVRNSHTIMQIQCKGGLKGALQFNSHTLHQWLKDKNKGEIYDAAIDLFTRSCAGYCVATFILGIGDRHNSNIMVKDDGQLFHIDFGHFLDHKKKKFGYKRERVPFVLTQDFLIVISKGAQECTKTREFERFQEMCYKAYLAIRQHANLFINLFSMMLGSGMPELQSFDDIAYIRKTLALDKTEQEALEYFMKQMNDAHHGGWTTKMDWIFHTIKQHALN

IC50 [5]: 287 nM
IC50 [6]: 12.8 nM
Compound: CN(C)c1nc(Cl)nc(NC2=NN(c3ccc(Br)cc3)C(c3ccc(C(F)(F)F)cc3)C2)n1 (stereo unspecified)

IC50 [7]: 8430 nM
IC50 [8]: 770 nM
Compound: COc1nc(Nc2ccc(C#N)cc2)nc(-c2ccc(N)cc2)n1

IC50 [10]: 17500 nM
Compound: CCN(CC)c1nc(Nc2ccccc2)nc(Nc2ccc(S(=O)(=O)NC(=N)N)cc2)n1

Ki [11]: 0.4 nM
Compound: NS(=O)(=O)c1ccc(CNc2nc(Cl)nc(Nc3ccc(O)cc3)n2)cc1

IC50 [10]: 4530 nM
IC50 [14]: 61 nM
Compound: Cc1cc(C)n(-c2nc(Nc3ccc(Br)cc3)nc(N3CCOCC3)n2)n1

IC50 [15]: 7160 nM
Compound: Cc1nc2ccc(Br)cc2c(=O)n1Nc1nc(Nc2cccc(Cl)c2)nc(N2CCNCC2)n1

IC50 [13]: 18400 nM
Compound: Cc1nc2cc(Br)c(Br)cc2c(=O)n1-c1ccc(Nc2nc(Nc3ccc(Cl)cc3)nc(N3CCCCC3)n2)cc1

IC50 [18]: 1480 nM
Compound: N#C/C(=C\c1cccc(F)c1)c1nc(N)nc(Nc2ccc(S(N)(=O)=O)cc2)n1
growth inhibition (GI) [17]: 65%

IC50 [10]: 2290 nM
Compound: CC1=NN(c2nc(Nc3ccc(Cl)cc3)nc(-n3nc(C)cc3C)n2)C(C)C1 (stereo unspecified)

IC50 [13]: 17800 nM
Compound: Cc1nc2cc(Br)c(Br)cc2c(=O)n1-c1ccc(Nc2nc(Nc3ccc(Br)cc3)nc(N3CCCCC3)n2)cc1

IC50 [5]: 229 nM
IC50 [6]: 70.7 nM
Compound: CN(C)c1nc(Cl)nc(NC2=NN(c3ccc(C(F)(F)F)cc3)C(c3ccc(C(F)(F)F)cc3)C2)n1 (stereo unspecified)

IC50 [10]: 3760 nM
Compound: COc1ccc(Nc2nc(N3CCCC3)nc(-n3nc(C)cc3C)n2)cc1

IC50 [18]: 1480 nM
Compound: CN(C)c1ccc(/C=C(\C#N)c2nc(N)nc(Nc3ccc(S(N)(=O)=O)cc3)n2)cc1
growth inhibition (GI) [17]: 60%
inhibition of growth at 10 µM [25]: 62%

IC50 [1]: 3290 nM
Compound: NCc1ccc(-c2nc(N/N=C/c3ccc(Cl)cc3)nc(N3CCCCC3)n2)cc1

inhibition [16]: 96.4%
IC50 [27]: 41500 nM
Compound: CCOC(=O)C1=CN(c2nc(Nc3cccc(F)c3)nc(Nc3cccc(F)c3)n2)C(=S)NC1c1ccc(F)cc1 (stereo unspecified)

IC50 [15]: 9540 nM
Compound: Cc1nc2ccc(Br)cc2c(=O)n1Nc1nc(Nc2ccc([N+](=O)[O-])cc2)nc(N2CCNCC2)n1

inhibition [16]: 94.3%
IC50 [27]: 47400 nM
Compound: CCOC(=O)C1=CN(c2nc(Nc3cccc(F)c3)nc(Nc3cccc(F)c3)n2)C(=S)NC1c1ccccc1OC (stereo unspecified)

IC50 [10]: 2660 nM
Compound: CC1=NN(c2nc(Nc3ccc(Br)cc3)nc(-n3nc(C)cc3C)n2)C(C)C1 (stereo unspecified)

Continued, compound first:

Compound: C(=N\Nc1nc(N2CCOCC2)nc(N2CCOCC2)n1)/c1ccccc1
IC50 [1]: 1000 nM

Compound: CNC(=O)Nc1ncc(-c2nc(-c3ccc(CN4CCN(S(C)(=O)=O)CC4)s3)nc(N3CCOCC3)n2)cn1
IC50 [2]: 30 nM
IC50 [3]: 10.9 nM

Compound: COc1nc(OC)nc(-c2nc(-c3nnc(-c4cc(OC)c(OC)c(OC)c4)o3)co2)n1
IC50 [4]: 25 nM

Compound: COc1nc(OC)nc(-c2nc(-c3nnc(-c4cc([N+](=O)[O-])c(Br)c([N+](=O)[O-])c4)o3)co2)n1
IC50 [4]: 95 nM

Compound: CS(=O)(=O)N1CCN(Cc2ccc(-c3nc(-c4cnc(N)nc4)nc(N4CCOCC4)n3)s2)CC1
IC50 [9]: 1250 nM
IC50 [3]: 48 nM

Compound: Cc1cc(/C=N/NC(=O)Nc2ccc(-c3nc(N4CCOCC4)nc(N4CCOCC4)n3)cc2)cc(C)c1O
IC50 [12]: 400 nM

Compound: COc1cc(OC)cc(-c2nnc(-c3coc(-c4nc(OC)nc(OC)n4)n3)o2)c1
IC50 [4]: 110 nM

Compound: Cc1nc2cc(Br)c(Br)cc2c(=O)n1-c1ccc(Nc2nc(N3CCCCC3)nc(N3CCOCC3)n2)cc1
IC50 [13]: 17200 nM

Compound: C=CCc1cc(C)cc(/C=N/NC(=O)Nc2ccc(-c3nc(N4CCOCC4)nc(N4CCOCC4)n3)cc2)c1O
IC50 [12]: 600 nM

Compound: O=[N+]([O-])c1ccc(Nc2nc(NC(=S)NNc3ccnc4ccccc34)nc(Nc3ccc([N+](=O)[O-])cc3)n2)cc1
inhibition [16]: 96.3%
IC50 [13]: 52200 nM

Compound: COc1cc(-c2nc(N)nc(Nc3ccc(C)cc3)n2)cc(OC)c1OC
IC50 [19]: > 20000 nM

Compound: COc1nc(N/N=C/c2ccccc2)nc(-c2ccc(N)cc2)n1
IC50 [20]: 3980 nM

Compound: Nc1nc(COC(=O)c2ccc([N+](=O)[O-])cc2)nc(Nc2ccccc2)n1
IC50 [21]: 6000 nM

Compound: COc1nc(OC)nc(-c2nc(-c3nnc(-c4cc([N+](=O)[O-])cc([N+](=O)[O-])c4)o3)co2)n1
IC50 [4]: 1340 nM

Compound: COc1ccc(Nc2nc(N3CCOCC3)nc(-n3nc(C)cc3C)n2)cc1
IC50 [10]: 2930 nM

Compound: CC1CCN(c2nc(Cl)nc(Oc3ccc(-c4coc5cc(Oc6nc(Cl)nc(N7CCC(C)CC7)n6)cc(O)c5c4=O)cc3)n2)CC1
IC50 [22]: 23100 nM

Compound: NCc1ccc(-c2nc(N/N=C/c3ccc(Br)cc3)nc(N3CCCCC3)n2)cc1
IC50 [20]: 4630 nM

Compound: COc1ccc(/C=N/NC(=O)Nc2ccc(-c3nc(N4CCOCC4)nc(N4CCOCC4)n3)cc2)cc1
IC50 [12]: 520 nM

Compound: COc1nc(Nc2ccc(C#N)cc2)nc(N2CCOCC2)n1
IC50 [7]: 7800 nM
IC50 [8]: 4290 nM

Compound: CCN(CC)c1nc(Nc2ccc(S(=O)(=O)NC(=N)N)cc2)nc(NN2CCOCC2)n1
IC50 [10]: > 100000 nM
inhibition [23]: 68%

Compound: CCN(CC)c1nc(Nc2ccc(S(=O)(=O)NC(=N)N)cc2)nc(NC2CCCCC2)n1
IC50 [10]: 18400 nM

Compound: FC(F)c1nc2ccccc2n1-c1nc(N2CCOCC2)nc(N2CCOCC2)n1 [ZSTK-474]
IC50 [24]: 37 nM

Compound: CN(C)c1ccc(-c2nc(N)nc(Nc3ccccc3F)n2)cc1
IC50 [19]: > 20000 nM

Compound: CCN(CC)c1nc(NC(=S)NNc2ccnc3ccccc23)nc(N(CC)CC)n1
inhibition [16]: 90.5%
IC50 [13]: 32300 nM

Compound: CN(C)C(=O)C1CCC(Oc2nc(-c3cccc4[nH]ncc34)nc(N3CCOCC3)n2)CC1 (stereo unspecified)
IC50 [26]: 60 nM

Compound: Nc1ncc(-c2nc(-c3ccc(CN4CCOCC4)s3)nc(N3CCOCC3)n2)cn1
IC50 [9]: 2650 nM
IC50 [3]: 69 nM

Compound: CNc1nc(Nn2c(C)nc3ccc(Br)cc3c2=O)nc(N2CCNCC2)n1
IC50 [15]: 9520 nM
